PubChem BioAssay AID1919006 (Molecular Pharmacology Branch, DTP, NCI, 2023)
pIC50: −log10 of the molar value. Where “and” joins values, the source holds several entries; their conditions need not be identical. Equal values may be shown once.

System: 885512-296-R-J2-PDC complex spheroid growth, % test/control
Assay: Anticancer human tumor 885512-296-R-J2-PDC patient-derived breast carcinoma cell line growth inhibition [AhR]
Conditions: for viability, T/C: stronger effect = lower value
Summary of the method: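 Spheroids combined tumor cells with HUVEC endothelial cells and human MSCs as stroma. AhR antagonists were paired with standard or investigational drugs, each dosed in half-log steps down from near clinical Cmax, or from 10 microM where Cmax was unknown.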

[1] = curve of first compound, second compound 0.1 µM
[2] = curve of first compound, second compound 0.316 µM
[3] = curve of first compound, second compound 1 µM
[4] = curve of first compound, second compound 3.16 µM
[5] = curve of first compound, second compound 10 µM
[6] = second compound 0.1 µM, first compound 0.0316 µM
[7] = second compound 0.1 µM, first compound 0.1 µM
[8] = second compound 0.1 µM, first compound 0.316 µM
[9] = second compound 0.1 µM, first compound 1 µM
[10] = second compound 0.316 µM, first compound 0.0316 µM
[11] = second compound 0.316 µM, first compound 0.1 µM
[12] = second compound 0.316 µM, first compound 0.316 µM
[13] = second compound 0.316 µM, first compound 1 µM
[14] = second compound 1 µM, first compound 0.0316 µM
[15] = second compound 1 µM, first compound 0.1 µM
[16] = second compound 1 µM, first compound 0.316 µM
[17] = second compound 1 µM, first compound 1 µM
[18] = second compound 3.16 µM, first compound 0.0316 µM
[19] = second compound 3.16 µM, first compound 0.1 µM
[20] = second compound 3.16 µM, first compound 0.316 µM
[21] = second compound 3.16 µM, first compound 1 µM
[22] = second compound 10 µM, first compound 0.0316 µM
[23] = second compound 10 µM, first compound 0.1 µM
[24] = second compound 10 µM, first compound 0.316 µM
[25] = second compound 10 µM, first compound 1 µM
[26] = second compound 0.1 µM, first compound 0.00316 µM
[27] = second compound 0.1 µM, first compound 0.01 µM
[28] = second compound 0.316 µM, first compound 0.00316 µM
[29] = second compound 0.316 µM, first compound 0.01 µM
[30] = second compound 1 µM, first compound 0.00316 µM
[31] = second compound 1 µM, first compound 0.01 µM
[32] = second compound 3.16 µM, first compound 0.00316 µM
[33] = second compound 3.16 µM, first compound 0.01 µM
[34] = second compound 10 µM, first compound 0.00316 µM
[35] = second compound 10 µM, first compound 0.01 µM
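Note: spheroids exposed to compounds for seven days.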

COc1ccc([C@@H](O)c2cc(-c3ncnc4cc(N5CCOCC5)ccc34)c(F)cc2Cl)nn1 + Cc1cncc(-c2nc(NCCc3c[nH]c4ccccc34)c3ncn(C(C)C)c3n2)c1
pIC50 [1]: < 5.00 | pIC50 [2]: 5.10 | pIC50 [3]: 5.21 | pIC50 [4]: 6.03 | pIC50 [5]: > 7.50 | viability, T/C [6]: 101% | viability, T/C [7]: 93.2% | viability, T/C [8]: 87.4% | viability, T/C [9]: 87.3% | viability, T/C (second compound 0.1 µM, first compound 3.16 µM): 63.1% | viability, T/C (second compound 0.1 µM, first compound 10 µM): 51.7% | viability, T/C [10]: 104% | viability, T/C [11]: 89.7% | viability, T/C [12]: 81.9% | viability, T/C [13]: 86.5% | viability, T/C (second compound 0.316 µM, first compound 3.16 µM): 65.9% | viability, T/C (second compound 0.316 µM, first compound 10 µM): 45.1% | viability, T/C [14]: 90.9% | viability, T/C [15]: 78.4% | viability, T/C [16]: 86.8% | viability, T/C [17]: 77.7% | viability, T/C (second compound 1 µM, first compound 3.16 µM): 63.2% | viability, T/C (second compound 1 µM, first compound 10 µM): 39.5% | viability, T/C [18]: 55.2% | viability, T/C [19]: 55.5% | viability, T/C [20]: 48.2% | viability, T/C [21]: 53.3% | viability, T/C (second compound 3.16 µM, first compound 3.16 µM): 42.6% | viability, T/C (second compound 3.16 µM, first compound 10 µM): 32.4% | viability, T/C [22]: 18.1% | viability, T/C [23]: 15.5% | viability, T/C [24]: 16.1% | viability, T/C [25]: 13.2% | viability, T/C (second compound 10 µM, first compound 3.16 µM): 11.3% | viability, T/C (second compound 10 µM, first compound 10 µM): 9.01%

COc1cc(C2c3cc4c(cc3C(OC3OC5COC(C)OC5C(O)C3O)C3COC(=O)C23)OCO4)cc(OC)c1O (configuration not stated)
viability, T/C (compound 0.0316 µM): 107% and 84.7% and 91.2% | viability, T/C (compound 0.1 µM): 96% and 92.5% and 87.4% | viability, T/C (compound 0.316 µM): 78.1% and 72.5% and 59.1% | viability, T/C (compound 1 µM): 29.6% and 44.8% and 14.3% | viability, T/C (compound 3.16 µM): 10.7% and 9.52% and 9.14% | viability, T/C (compound 10 µM): 8.19% and 5.47% and 7.82% | pIC50 (curve of compound): 6.21 and 6.11 and 6.40

CC[C@@]1(O)C(=O)OCc2c1cc1n(c2=O)Cc2cc3c(CN(C)C)c(O)ccc3nc2-1 + Cc1cncc(-c2nc(NCCc3c[nH]c4ccccc34)c3ncn(C(C)C)c3n2)c1
pIC50 [1]: 8.26 | pIC50 [2]: 8.24 | pIC50 [3]: 8.35 | pIC50 [4]: 8.67 | pIC50 [5]: > 9.50 | viability, T/C (second compound 0.1 µM, first compound 0.000316 µM): 87.8% | viability, T/C (second compound 0.1 µM, first compound 0.001 µM): 96.1% | viability, T/C [26]: 67.6% | viability, T/C [27]: 29.2% | viability, T/C [6]: 9.48% | viability, T/C [7]: 6.96% | viability, T/C (second compound 0.316 µM, first compound 0.000316 µM): 102% | viability, T/C (second compound 0.316 µM, first compound 0.001 µM): 88.1% | viability, T/C [28]: 71.9% | viability, T/C [29]: 30.6% | viability, T/C [10]: 9.89% | viability, T/C [11]: 4.62% | viability, T/C (second compound 1 µM, first compound 0.000316 µM): 90.4% | viability, T/C (second compound 1 µM, first compound 0.001 µM): 82.2% | viability, T/C [30]: 62% | viability, T/C [31]: 23.6% | viability, T/C [14]: 6.8% | viability, T/C [15]: 6.23% | viability, T/C (second compound 3.16 µM, first compound 0.000316 µM): 62.9% | viability, T/C (second compound 3.16 µM, first compound 0.001 µM): 60.1% | viability, T/C [32]: 44.5% | viability, T/C [33]: 27.3% | viability, T/C [18]: 12.9% | viability, T/C [19]: 7.38% | viability, T/C (second compound 10 µM, first compound 0.000316 µM): 21.8% | viability, T/C (second compound 10 µM, first compound 0.001 µM): 21.9% | viability, T/C [34]: 20.9% | viability, T/C [35]: 13.7% | viability, T/C [22]: 11.5% | viability, T/C [23]: 4.72%

CC1COCCN1c1cc(-c2ccnn2C)c2ccnc(-c3ccn[nH]3)c2n1 (configuration not stated) + Cc1ccccc1N=Nc1ccc(NC(=O)c2ccnn2C)c(C)c1
pIC50 [1]: 7.45 | pIC50 [2]: 7.38 | pIC50 [3]: 7.39 | pIC50 [4]: 7.39 | pIC50 [5]: 7.93 | viability, T/C [26]: 97.7% | viability, T/C [27]: 97.6% | viability, T/C [6]: 53.6% | viability, T/C [7]: 11.1% | viability, T/C [8]: 3.35% | viability, T/C [9]: 2.33% | viability, T/C [28]: 108% | viability, T/C [29]: 87.6% | viability, T/C [10]: 65.3% | viability, T/C [11]: 10.9% | viability, T/C [12]: 3.03% | viability, T/C [13]: 2.67% | viability, T/C [30]: 98.4% | viability, T/C [31]: 85.5% | viability, T/C [14]: 61.6% | viability, T/C [15]: 12% | viability, T/C [16]: 4.35% | viability, T/C [17]: 2.65% | viability, T/C [32]: 89.8% | viability, T/C [33]: 86.3% | viability, T/C [18]: 61.6% | viability, T/C [19]: 10.3% | viability, T/C [20]: 3.42% | viability, T/C [21]: 2.63% | viability, T/C [34]: 57.1% | viability, T/C [35]: 47.7% | viability, T/C [22]: 38.3% | viability, T/C [23]: 7.15% | viability, T/C [24]: 2.64% | viability, T/C [25]: 2.57%
